Assay results: EP0133407A1, “Acetylene derivatives having an enzyme-inhibiting activity, their preparation and their use as medicines” (Etablissement Public dit: CENTRE NATIONAL DE LA RECHERCHE …, priority 1983, dated 1985)

Assays:
[1] = test system: virus du sarcome de ROUS; experiment: Replication of Rous sarcoma virus; assay type: cell-based
Source text: (§1) Le produit est efficace contre la transformation des cellules d'embryon de poulet induite par le virus du sarcome de ROUS.

[2] = test system: Cellules de la membrane amniotique humaine; experiment: Cell growth inhibition / toxicity, normal cells: human amniotic membrane cells; assay type: cell-based
[3] = test system: Cellules de rein de rat NRK B 77; experiment: Cell growth inhibition, transformed cells: NRK B 77; assay type: cell-based
Source text: (§2) Les tableaux 1 et 2 ci-après donnent le résultat de ces tests qui portent sur trois types de cellules transformées. Les chiffres indiqués représentent le pourcentage d'inhibition de la croissance de cellules traitées par des doses de plus en plus fortes de composé 6a (chlorhydrate) par rapport à celles des mêmes cellules non traitées.

[4] = test system: cellules de mélanomes humains M3 DAU; experiment: Complementary in vitro test, dead cells after four days of growth: melanoma M3 DAU; assay type: cell-based; conditions: untreated 6, 5760 min
Source text: as §2

[5] = test system: carcinome de Lewis; experiment: In vivo tumour growth: Lewis carcinoma in mice; set-up: species or system souris swiss; conditions: 3.10^5 Lewis carcinoma cells; daily 6 mg/kg or 12 mg/kg
Source text: (§3) Deux types de tumeurs ont été utilisés : • - un carcinome de Lewis (sur souris swiss), • - un mélanome DAU d'origine humaine (sur souris nude).
Le test est effectué sur des souris auxquelles 3.10^5 cellules de carcinome de Lewis ont été inoculées.

[6] = test system: cellules de mélanomes humains M1 DOR; experiment: Complementary in vitro test, dead cells after four days of growth: melanoma M1 DOR; assay type: cell-based; conditions: untreated 24, 5760 min
[7] = test system: Hepatomes de rat; experiment: Cell growth inhibition, transformed cells: rat hepatomas; assay type: cell-based
Source text: as §2

[8] = test system: Cellules HeLa humaines; experiment: Cell growth inhibition, transformed cells: HeLa; assay type: cell-based
Source text: as §2

[9] = test system: NRK LA31 à 33°; experiment: Cell growth inhibition, transformed cells: NRK LA31 at 33°; assay type: cell-based, rat
Source text: as §2

[10] = test system: clone FAZA 967 de l'hépatome de rat REUBER H 35; experiment: Toxicity on hepatoma clone FAZA 967 (LDH, GOT, GPT assayed in the medium); assay type: cell-based
[11] = test system: Cellules d'embryon de poulet; experiment: Transformation of chick embryo cells induced by Rous sarcoma virus; assay type: cell-based
Source text: as §1

[12] = test system: cellules d'ascites de KREBS (carcinome); experiment: Survival of mice injected with Krebs ascites cells; assay type: in vivo, souris swiss; set-up: taux de survie: unit not given here
Source text: (§4) Les tests dont les résultats sont donnés ci-dessous ont été réalisés avec des solutions du composé 6a (sous forme de chlorhydrate). Dans ces tests, on a étudié l'activité vis à vis de la croissance tumorale (carcinome et mélanome) et la survie de souris swiss auxquelles ont été injectées des quantités variables de cellules d'ascites de Krebs.
Les résultats des tests ont été obtenus principalement à partir de souris' auxquelles ont été injectées des cellules d'ascites de KREBS (carcinome) dont l'origine a été décrite par G. KLEIN et E. KLEIN Cancer Research 1951-11-466.

[13] = test system: Fibroblastes humains MRC 5; experiment: Cell growth inhibition, normal cells: MRC 5 fibroblasts; assay type: cell-based
[14] = test system: mélanome DAU d'origine humaine; experiment: In vivo tumour growth: human melanoma DAU in nude mice; set-up: species or system souris nude; souris traitées présentant un retard dans le développement tumoral: unit not given here; conditions: 5.10^5 melanoma DAU cells; 2 x 15 mg/kg on day 1, 2 x 6 mg/kg days 2 to 7; versus untreated controls
Experimental: as §3
Les souris ont reçu une injection de 5.10^5 cellules de mélanome DAU Celles traitées ont reçu : • - 2 x 15 mg/kg le premier jour, • - 2 x 6 mg/kg du deuxième au septième jour.

[15] = Acute toxicity (DL50) in mice; set-up: species or system souris swiss; conditions: mouse, in vivo, two independent measurements
Experimental: as §4
Toxicité aigüe : La DL50 du composé 6a (chlorhydrate) déterminée sur ces souris par deux mesures indépendantes est de 60 mg/kg.

[16] = test system: Cellules d'embryon de poulet; experiment: Cell growth inhibition, normal cells: chick embryo cells; assay type: cell-based
[17] = test system: cellules NRK (normales); experiment: Growth inhibition in tissue culture, normal NRK cells; assay type: cell-based; conditions: 6a solutions made by the second method (example 2) compared with product of example 1
[18] = Stability of solutions; assay type: physicochemical; conditions: concentrated solutions
Source text: Il convient de préciser que les solutions concentrées du produit 6a sont instables. Le produit est conservé sous forme de solutions diluées, par exemple le chlorhydrate peut être conservé en solution aqueuse diluée.

[19] = test system: cellules de leucémie L1210; experiment: Survival of mice inoculated with leukaemia L1210 cells; assay type: in vivo, souris; conditions: 3.10^5 L1210 cells; 6 mg/kg for 7 days
Source text: Une étude a aussi été faite sur des souris auxquelles avaient été inoculées 3.10^5 cellules de leucémie L1210.

[20] = test system: lignées de lymphomes de souris; experiment: In vivo activity against mouse lymphoma lines; conditions: certain mouse lymphoma lines
[21] = concentration 1,5.10^-3 (unit not given)
[22] = concentration 2.10^-3 (unit not given)
[23] = concentration 3.10^-3 (unit not given)
[24] = concentration 4.10^-3 (unit not given)
[25] = concentration 5.10^-3 (unit not given)

Question: With CC(C)(N)C#CC=O [composé 6a] as the compound, how does the réplication du virus [1] read?
Answer: The réplication du virus was “n'est pas inhibée”.

Question: What about the “% d'inhibition de la croissance cellulaire” value ([2]; 6.10^-4 M) of the same compound?
Answer: Its value is 0%.

Question: What about the “effet sur la croissance et sur la morphologie des cellules” value ([2]; concentrations de 5.10 et de 10^-4 mole-litre ^-1) of the same compound?
Answer: The value was “aucun effet”.

Question: What about the “% d'inhibition de la croissance cellulaire” value ([3]; 1.10^-4 M) of the same compound?
Answer: The value was 16%.

Question: And the “% d'inhibition de la croissance cellulaire” value ([3]; 2.10^-4 M)?
Answer: Its value is 31%.

Question: And the “% d'inhibition de la croissance cellulaire” value ([3]; 4.10^-4 M)?
Answer: Its value is 57%.

Question: And the “% d'inhibition de la croissance cellulaire” value ([3]; 5.10^-5 M)?
Answer: The value was 0%.

Question: What about the “inhibition de la croissance en culture de tissus” value ([3]; 6a solutions made by the second method (example 2) compared with product of example 1, NRK-B77 (transformées)) of the same compound?
Answer: The value was “activité en tous points comparable à celle observée avec le produit de l'exemple 1”.

Question: What about the “% d'inhibition de la croissance cellulaire” value ([3]; 6.10^-4 M) of the same compound?
Answer: Its value is 79%.

Question: What about the “% de cellules mortes après quatre jours de croissance” value [4, 21] of the same compound?
Answer: Its value is 24%.

Question: What about the “% de cellules mortes après quatre jours de croissance” value [4, 22] of the same compound?
Answer: The value was 47%.

Question: And the “% de cellules mortes après quatre jours de croissance” value [4, 23]?
Answer: The value was 92%.

Question: And the “% de cellules mortes après quatre jours de croissance” value [4, 24]?
Answer: Its value is 98%.

Question: What about the “% de cellules mortes après quatre jours de croissance” value [4, 25] of the same compound?
Answer: Its value is 98%.

Question: What about the croissance tumorale [5] of the same compound?
Answer: Its croissance tumorale is “net ralentissement de la croissance tumorale”.

Question: And the “% de cellules mortes après quatre jours de croissance” value [6, 21]?
Answer: The value was 21%.

Question: And the “% de cellules mortes après quatre jours de croissance” value [6, 22]?
Answer: Its value is 28%.

Question: And the “% de cellules mortes après quatre jours de croissance” value [6, 23]?
Answer: The value was 24%.

Question: What about the “% de cellules mortes après quatre jours de croissance” value [6, 24] of the same compound?
Answer: Its value is 26%.

Question: And the “% de cellules mortes après quatre jours de croissance” value [6, 25]?
Answer: Its value is 23%.

Question: What about the “% d'inhibition de la croissance cellulaire” value ([7]; 2.10^-4 M) of the same compound?
Answer: Its value is 50%.

Question: And the “% d'inhibition de la croissance cellulaire” value ([7]; 6.10^-4 M)?
Answer: Its value is 60%.

Question: And the “% d'inhibition de la croissance cellulaire” value ([8]; 1.10^-4 M)?
Answer: Its value is 18%.

Question: What about the “% d'inhibition de la croissance cellulaire” value ([8]; 2.10^-4 M) of the same compound?
Answer: Its value is 36%.

Question: And the “% d'inhibition de la croissance cellulaire” value ([8]; 4.10^-4 M)?
Answer: The value was 78%.

Question: And the “% d'inhibition de la croissance cellulaire” value ([8]; 5.10^-5 M)?
Answer: The value was 0%.

Question: What about the “% d'inhibition de la croissance cellulaire” value ([8]; 6.10^-4 M) of the same compound?
Answer: Its value is 91%.

Question: What about the “% d'inhibition de la croissance cellulaire” value ([9]; 1.10^-4 M) of the same compound?
Answer: The value was 0%.

Question: What about the “% d'inhibition de la croissance cellulaire” value ([9]; 2.10^-4 M) of the same compound?
Answer: Its value is 11%.

Question: What about the “% d'inhibition de la croissance cellulaire” value ([9]; 4.10^-4 M) of the same compound?
Answer: The value was 63%.

Question: What about the “% d'inhibition de la croissance cellulaire” value ([9]; 5.10^-5 M) of the same compound?
Answer: The value was 0%.

Question: And the “% d'inhibition de la croissance cellulaire” value ([9]; 6.10^-4 M)?
Answer: Its value is “Mort”.

Question: What about the “toxicité du produit, estimée par dosage dans le milieu des enzymes LDH, GOT et GPT” value [10] of the same compound?
Answer: The value was “aucune toxicité”.

Question: And the “efficacité contre la transformation des cellules induite par le virus du sarcome de ROUS” value [11]?
Answer: The value was “efficace”.

Question: What about the survie ([12]; 5.10^5 cells inoculated, 6 mg/kg for 7 days) of the same compound?
Answer: Its survie is “provoque un retard dans la mort mais n'augmente pas le taux de survie”.

Question: And the taux de survie ([12]; 5.10^5 cells inoculated, 6 mg/kg, treatment of 21 days)?
Answer: Its taux de survie is ≤ 90.

Question: And the survie ([12]; 5.10^5 cells, 2 x 15 mg/kg on day 1 then 2 x 6 mg/kg the 6 following days, compared with 21-day treatment)?
Answer: Its survie is “Le même effet”.

Question: What about the survie ([12]; 10 cellules (so in the source), 2 x 15 mg/kg on day 1 then 2 x 6 mg/kg the 6 following days) of the same compound?
Answer: Its survie is “encore suffisants”.

Question: And the survie ([12]; inoculation of 5.10^6 cells, 2 x 15 mg/kg on day 1 then 2 x 6 mg/kg the 6 following days)?
Answer: Its survie is “efficacité est moindre”.

Question: And the survie ([12]; inoculation of 10 cellules (so in the source), 6 mg/kg daily for 7 days)?
Answer: Its survie is “guérison complète jusque 6 mois”.

Question: And the “% d'inhibition de la croissance cellulaire” value ([13]; 1.10^-4 M)?
Answer: Its value is 0%.

Question: What about the “% d'inhibition de la croissance cellulaire” value ([13]; 2.10^-4 M) of the same compound?
Answer: Its value is 0%.

Question: And the “% d'inhibition de la croissance cellulaire” value ([13]; 4.10^-4 M)?
Answer: The value was 0%.

Question: And the “% d'inhibition de la croissance cellulaire” value ([13]; 5.10^-5 M)?
Answer: Its value is 0%.

Question: What about the “% d'inhibition de la croissance cellulaire” value ([13]; 6.10^-4 M) of the same compound?
Answer: Its value is 18%.

Question: What about the “retard dans le développement tumoral” value [14] of the same compound?
Answer: The value was “dizaine”.

Question: What about the “souris traitées présentant un retard dans le développement tumoral” value [14] of the same compound?
Answer: The value was 60.

Question: What about the LD50 [15] of the same compound?
Answer: Its LD50 is 60 mg/kg.

Question: And the “% d'inhibition de la croissance cellulaire” value ([16]; 1.10^-4 M)?
Answer: Its value is 0%.

Question: What about the “% d'inhibition de la croissance cellulaire” value ([16]; 2.10^-4 M) of the same compound?
Answer: The value was 0%.

Question: And the “% d'inhibition de la croissance cellulaire” value ([16]; 4.10^-4 M)?
Answer: Its value is 10%.

Question: And the “% d'inhibition de la croissance cellulaire” value ([16]; 5.10^-5 M)?
Answer: Its value is 0%.

Question: And the “% d'inhibition de la croissance cellulaire” value ([16]; 6.10^-4 M)?
Answer: Its value is 12%.

Question: What about the “inhibition de la croissance en culture de tissus” value [17] of the same compound?
Answer: Its value is “activité en tous points comparable à celle observée avec le produit de l'exemple 1”.

Question: And the stabilité des solutions [18]?
Answer: The stabilité des solutions was “instables”.

Question: What about the survie [19] of the same compound?
Answer: The survie was “le même effet que dans le cas du carcinome”.

Question: With CCOC(C#CC(C)(C)N)OCC [composé 9a] as the compound, how does the activité in vivo [20] read?
Answer: Its activité in vivo is “actif sélectivement”.
